Conditions: Liquid, Hot wire method

FC(F)CC(F)(F)F [1,1,1,3,3-pentafluoropropane]
Conditions | thermal conductivity [W/m/K]
323.16 K, 330 kPa | 0.08023
323.16 K, 19684 kPa | 0.09037
323.16 K, 19687 kPa | 0.09046
323.23 K, 13828 kPa | 0.0878
323.23 K, 13836 kPa | 0.08777
323.31 K, 8785 kPa | 0.08509
323.31 K, 8786 kPa | 0.08508
323.33 K, 69855 kPa | 0.1079
323.33 K, 69859 kPa | 0.1079
323.4 K, 58551 kPa | 0.1046
323.41 K, 58550 kPa | 0.1047
323.46 K, 49806 kPa | 0.1018
323.46 K, 49813 kPa | 0.1019
323.52 K, 40518 kPa | 0.09873
323.52 K, 40523 kPa | 0.09883
323.56 K, 33191 kPa | 0.09593
323.57 K, 33190 kPa | 0.0959
323.65 K, 26145 kPa | 0.09305
323.65 K, 26148 kPa | 0.09303
323.66 K, 4345 kPa | 0.08263
323.67 K, 4353 kPa | 0.08281
323.71 K, 19685 kPa | 0.09038
323.72 K, 19683 kPa | 0.09025
323.74 K, 330 kPa | 0.08004
323.74 K, 331 kPa | 0.08014
323.8 K, 13825 kPa | 0.08771
323.8 K, 13826 kPa | 0.08762
323.88 K, 8784 kPa | 0.08522
323.89 K, 8785 kPa | 0.08516
341.35 K, 31717 kPa | 0.09048
341.36 K, 791 kPa | 0.07387
341.36 K, 807 kPa | 0.07373
341.36 K, 31723 kPa | 0.09099
341.37 K, 4061 kPa | 0.07637
341.37 K, 4066 kPa | 0.07637
341.37 K, 8227 kPa | 0.07909
341.38 K, 8222 kPa | 0.07861
341.39 K, 12846 kPa | 0.08132
341.4 K, 12858 kPa | 0.08189
341.41 K, 18251 kPa | 0.08455
341.42 K, 18258 kPa | 0.08459
341.43 K, 24450 kPa | 0.08726
341.44 K, 24457 kPa | 0.08772
341.44 K, 39673 kPa | 0.09407
341.44 K, 39675 kPa | 0.0951
341.65 K, 48504 kPa | 0.09719
341.66 K, 48505 kPa | 0.09738
341.69 K, 58414 kPa | 0.1006
341.71 K, 58417 kPa | 0.101
341.73 K, 69248 kPa | 0.1039
341.75 K, 69269 kPa | 0.1038
341.77 K, 31709 kPa | 0.09087
341.77 K, 31711 kPa | 0.09067
341.79 K, 800 kPa | 0.07352
341.79 K, 8213 kPa | 0.07901
341.79 K, 8220 kPa | 0.07915
341.8 K, 798 kPa | 0.074
341.8 K, 4049 kPa | 0.07607
341.8 K, 4060 kPa | 0.07627
341.8 K, 12862 kPa | 0.08133
341.8 K, 18252 kPa | 0.08459
341.8 K, 18254 kPa | 0.0841
341.81 K, 12851 kPa | 0.08125
341.81 K, 24448 kPa | 0.08731
341.81 K, 24452 kPa | 0.08759
341.83 K, 39657 kPa | 0.09382
341.83 K, 39667 kPa | 0.09362
342.05 K, 48492 kPa | 0.09719
342.06 K, 48492 kPa | 0.09719
342.09 K, 58399 kPa | 0.1006
342.1 K, 58406 kPa | 0.1005
342.12 K, 69235 kPa | 0.1042
342.12 K, 69238 kPa | 0.104
342.21 K, 31695 kPa | 0.09091
342.23 K, 24443 kPa | 0.08756
342.23 K, 31701 kPa | 0.09082
342.24 K, 18254 kPa | 0.08456
342.24 K, 18263 kPa | 0.08459
342.24 K, 24457 kPa | 0.08773
342.25 K, 8211 kPa | 0.079
342.25 K, 8213 kPa | 0.0788
342.25 K, 12847 kPa | 0.08139
342.26 K, 12846 kPa | 0.08139
342.27 K, 4048 kPa | 0.07633
342.27 K, 39655 kPa | 0.09411
342.28 K, 795 kPa | 0.07417
342.28 K, 4064 kPa | 0.07591
342.28 K, 39659 kPa | 0.09393
342.29 K, 784 kPa | 0.07414
342.49 K, 48484 kPa | 0.09716
342.51 K, 48493 kPa | 0.09719
342.51 K, 58384 kPa | 0.1004
342.53 K, 58390 kPa | 0.1005
342.53 K, 69205 kPa | 0.104
342.54 K, 69218 kPa | 0.1038
342.7 K, 24435 kPa | 0.08753
342.71 K, 18288 kPa | 0.08467
342.71 K, 24437 kPa | 0.08761
342.72 K, 31697 kPa | 0.09082
342.72 K, 31698 kPa | 0.09091
342.73 K, 18277 kPa | 0.08453
342.74 K, 12836 kPa | 0.08165
342.75 K, 12854 kPa | 0.08161
342.75 K, 39640 kPa | 0.09416
342.75 K, 39649 kPa | 0.09419
342.77 K, 8198 kPa | 0.07878
342.77 K, 8214 kPa | 0.07886
342.8 K, 4060 kPa | 0.07628
342.81 K, 4048 kPa | 0.07623
342.82 K, 778 kPa | 0.074
342.83 K, 779 kPa | 0.07358
342.98 K, 48479 kPa | 0.09746
342.99 K, 48476 kPa | 0.09717
342.99 K, 58371 kPa | 0.1007
342.99 K, 69188 kPa | 0.1043
342.99 K, 69203 kPa | 0.1043
343 K, 58374 kPa | 0.1007
343.21 K, 24431 kPa | 0.0874
343.22 K, 24434 kPa | 0.0876
343.25 K, 18297 kPa | 0.0846
343.25 K, 18305 kPa | 0.08481
343.25 K, 31683 kPa | 0.09097
343.25 K, 31692 kPa | 0.09092
343.27 K, 39640 kPa | 0.09411
343.28 K, 39648 kPa | 0.09409
343.29 K, 12856 kPa | 0.08212
343.3 K, 12844 kPa | 0.08186
343.33 K, 8193 kPa | 0.07913
343.33 K, 8208 kPa | 0.07905
343.38 K, 4043 kPa | 0.07572
343.39 K, 4045 kPa | 0.07592
343.42 K, 777 kPa | 0.07373
343.43 K, 791 kPa | 0.07347
343.48 K, 69162 kPa | 0.1043
343.49 K, 69172 kPa | 0.1045
343.5 K, 48465 kPa | 0.09758
343.5 K, 58358 kPa | 0.1009
343.5 K, 58363 kPa | 0.1009
343.51 K, 48479 kPa | 0.0974
